Each block holds one compound with its values, some of them ahead of it.
How the values were obtained:
[1] = test system: fibronectin and thrombospondin; conditions: Laping et al., 2002; cited from earlier work
[2] = test system: IL-6, IL-8, GM-CSF, RANTES and COX-2; conditions: a number of different cell types; cited from earlier work
[3] = test system: LPS-stimulated cytokine production (IL-1beta and/or TNFalpha); assay: LPS-Stimulated Cytokine Production in Human Whole Blood; type: cell-based; conditions: 50 ng/ml LPS, 4 hour incubation, IL-1beta and/or TNFalpha by ELISA
Method: Assay: Test compound concentrations were prepared at 10× concentrations and LPS prepared at 1 ug/ml (final conc. of 50 ng/ml LPS) and added in 50 uL volumes to 1.5 mL eppendorf tubes. Heparinized human whole blood was obtained from healthy volunteers and was dispensed into eppendorf tubes or multiwell plates containing compounds and LPS in 0.2-0.4 mL volumes and the tubes incubated at 37 C. In some studies, compound was incubated with blood for up to 30 min prior to addition of LPS. Following a 4 hour incubation, the tubes or plates were centrifuged to remove cells and plasma was withdrawn and frozen at −80 C. Cytokine measurement: IL-Ibeta and/or TNFalpha were quantified using a standardized ELISA, or similar technology. Concentrations of IL-1beta or TNFalpha were determined from standard curves of the appropriate cytokine and IC50 values for test compound (concentration that inhibited 50% of LPS-stimulated cytokine production) were calculated by linear regression analysis.

[4] = test system: TNF-stimulated IL8 production by human neutrophils; assay: TNF-Stimulated IL-8 Production from Human Neutrophils; type: cell-based; conditions: TNF 100 ng/ml, approximately 20 hrs, IL-8 by ELISA

SMILES: COc1nccc(-c2c(-c3ccc(F)cc3)ncn2C2CCNCC2)n1 [SB-242235]
inhibition of TGF-β-induced increases in fibronectin and thrombospondin [1]: inhibited

SMILES: C[S+]([O-])c1ccc(-c2nc(-c3ccncc3)c(-c3ccc(F)cc3)[nH]2)cc1 (centres unmarked) [SB-203580]
decreasing the synthesis of pro-inflammatory proteins including IL-6, IL-8, GM-CSF, RANTES and COX-2 [2]: effective

SMILES: Fc1ccc(-c2nc3n(c2-c2ccncc2)CCS3)cc1 [SK&F 86002]
decreasing the synthesis of pro-inflammatory proteins including IL-6, IL-8, GM-CSF, RANTES and COX-2 [2]: effective

IC50 (concentration that inhibited 50% of LPS-stimulated cytokine production) [3]: active
IC50, TNF-stimulated IL-8 production [4]: active
SMILES: Cc1cc(F)ccc1-c1nc(NCCNC(N)=NC#N)nc2c1ccc(=O)n2-c1c(F)cccc1F [Example 10]
